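Step 1: Grow cells in 96-well plates. Step 2: Expose to compound for 48 hours at 5 concentrations. Step 3: Interpolate endpoints linearly; if unreached, use highest concentration. Here, GI50 denotes the concentration required for 50% inhibition of growth.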 The source made the active and inactive calls. No stated cut-off is given here; in the data, active = GI50 up to about 1.1 µM and inactive = higher.
Columns and labels:
Experiment in all cases: NCI anticancer screen, dose series, 48 h
[1] = test system: DU-145
[2] = test system: HT-29
[3] = test system: NCI/ADR-RES
[4] = test system: HCC 2998
[5] = test system: A498
[6] = test system: MDA-MB-435
[7] = test system: A549
[8] = test system: Hs-578T
[9] = test system: HCT-15
[10] = test system: SK-OV-3
[11] = test system: MDA-N
[12] = test system: 786-0
[13] = test system: SF-295
[14] = test system: OVCAR-8
[15] = test system: IGROV-1
[16] = test system: OVCAR-3
[17] = test system: MDA-MB-231
[18] = test system: UO-31
[19] = test system: HCT-116
[20] = test system: SF-268
[21] = test system: SNB-75
[22] = test system: LOX IMVI
[23] = test system: RPMI-8226
[24] = test system: NCI-H460
[25] = test system: SN12C
[26] = test system: ACHN
[27] = test system: UACC-62
[28] = test system: SW-620
[29] = test system: M14
[30] = test system: PC-3
[31] = test system: BT-549
[32] = test system: SR
[33] = test system: KM12
[34] = test system: CCRF-CEM
[35] = test system: CAKI-1
[36] = test system: K562
[37] = test system: HL-60
[38] = test system: HOP-92
[39] = test system: SK-MEL-28
[40] = test system: SNB-19
[41] = test system: OVCAR-5
[42] = test system: HOP-62
[43] = test system: MCF7
[44] = test system: SK-MEL-2
[45] = test system: U-251
[46] = test system: TK-10
[47] = test system: MOLT-4
[48] = test system: SK-MEL-5
[49] = test system: T47D
[50] = test system: OVCAR-4
[51] = test system: UACC-257
[52] = test system: EKVX
[53] = test system: SF-539
[54] = test system: COLO 205
[55] = test system: Malme-3M
[56] = test system: RXF 393
[57] = test system: NCI-H23
[58] = test system: NCI-H522

`O=C(c1ccccc1)c1ccc(N2C(=O)/C(=C/Cc3ccco3)N=C2c2ccccc2)c(N2C(=O)/C(=C/Cc3ccco3)N=C2c2ccccc2)c1` was tested, and the GI50 [1] was 30 µM (inactive), the GI50 [2] was 43.4 µM (inactive) and the GI50 [3] was 33.8 µM (inactive). For the same molecule, the GI50 [4] was 36.9 µM (inactive), the GI50 [5] was 51.5 µM (inactive) and the GI50 [6] was 29.2 µM (inactive). The GI50 [7] was 35.8 µM (inactive), the GI50 [8] was 25.8 µM (inactive) and the GI50 [9] was 45 µM. The GI50 [10] was 30.5 µM (inactive), the GI50 [11] was 60.3 µM (inactive) and the GI50 [12] was 45.7 µM (inactive). For the same molecule, the GI50 [13] was 30 µM (inactive), the GI50 [14] was 29.3 µM (inactive) and the GI50 [15] was 39.2 µM (inactive). For the same molecule, the GI50 [16] was 21.6 µM (inactive), the GI50 [17] was 37.9 µM (inactive) and the GI50 [18] was 39 µM (inactive). The GI50 [19] was 40.2 µM (inactive), the GI50 [20] was 32.1 µM (inactive) and the GI50 [21] was 28.1 µM (inactive). For the same molecule, the GI50 [22] was 24.2 µM (inactive), the GI50 [23] was 27.8 µM (inactive) and the GI50 [24] was 36.6 µM (inactive). For the same molecule, the GI50 [25] was 71.6 µM (inactive), the GI50 [26] was 33 µM (inactive) and the GI50 [27] was 26.5 µM (inactive). For the same molecule, the GI50 [28] was 39.8 µM (inactive), the GI50 [29] was 39.9 µM (inactive) and the GI50 [30] was 39.8 µM (inactive). The GI50 [31] was 35.6 µM (inactive), the GI50 [32] was 28.6 µM (inactive) and the GI50 [33] was 28.4 µM (inactive). The GI50 [34] was 11.1 µM (inactive), the GI50 [35] was 67.5 µM (inactive) and the GI50 [36] was 64.7 µM (inactive). The GI50 [37] was 15.3 µM (inactive), the GI50 [38] was 97.1 µM (inactive) and the GI50 [39] was > 100 µM (inactive). For the same molecule, the GI50 [40] was 47.4 µM (inactive), the GI50 [41] was > 100 µM (inactive) and the GI50 [42] was 40 µM (inactive). The GI50 [43] was 52 µM (inactive), the GI50 [44] was 25.5 µM (inactive) and the GI50 [45] was 18.8 µM (inactive). The GI50 [46] was 55.8 µM (inactive), the GI50 [47] was 18.8 µM (inactive) and the GI50 [48] was 26.1 µM (inactive). The GI50 [49] was 36.4 µM (inactive), the GI50 [50] was 39.9 µM (inactive) and the GI50 [51] was 47.1 µM (inactive). The GI50 [52] was 81.5 µM (inactive), the GI50 [53] was 16.2 µM (inactive) and the GI50 [54] was 38.6 µM (inactive).

With `N=C(N)NC1C(O)C(O)C(O)C(NC(=N)N)C1O` (configuration not stated) the GI50 [1] was > 100 µM (inactive), the GI50 [2] was > 100 µM (inactive) and the GI50 [3] was > 100 µM (inactive). The GI50 [4] was > 100 µM (inactive), the GI50 [5] was > 100 µM (inactive) and the GI50 [6] was > 100 µM (inactive). The GI50 [7] was > 100 µM (inactive), the GI50 [8] was > 100 µM (inactive) and the GI50 [9] was greater than 100 µM. For the same molecule, the GI50 [10] was > 100 µM (inactive), the GI50 [11] was > 100 µM (inactive) and the GI50 [12] was > 100 µM (inactive). For the same molecule, the GI50 [13] was > 100 µM (inactive), the GI50 [14] was > 100 µM (inactive) and the GI50 [15] was > 100 µM (inactive). The GI50 [16] was > 100 µM (inactive), the GI50 [55] was > 100 µM (inactive) and the GI50 [17] was > 100 µM (inactive). For the same molecule, the GI50 [18] was > 100 µM (inactive), the GI50 [19] was > 100 µM (inactive) and the GI50 [20] was > 100 µM (inactive). The GI50 [21] was > 100 µM (inactive), the GI50 [22] was > 100 µM (inactive) and the GI50 [23] was > 100 µM (inactive). The GI50 [24] was > 100 µM (inactive), the GI50 [25] was > 100 µM (inactive) and the GI50 [26] was > 100 µM (inactive). The GI50 [27] was > 100 µM (inactive), the GI50 [28] was > 100 µM (inactive) and the GI50 [29] was > 100 µM (inactive). For the same molecule, the GI50 [30] was > 100 µM (inactive), the GI50 [56] was > 100 µM (inactive) and the GI50 [57] was > 100 µM (inactive). The GI50 [31] was > 100 µM (inactive), the GI50 [32] was > 100 µM (inactive) and the GI50 [33] was > 100 µM (inactive). For the same molecule, the GI50 [34] was > 100 µM (inactive), the GI50 [35] was > 100 µM (inactive) and the GI50 [36] was > 100 µM (inactive). The GI50 [58] was > 100 µM (inactive), the GI50 [37] was > 100 µM (inactive) and the GI50 [38] was > 100 µM (inactive). The GI50 [39] was > 100 µM (inactive), the GI50 [40] was > 100 µM (inactive) and the GI50 [41] was > 100 µM (inactive). The GI50 [42] was > 100 µM (inactive), the GI50 [43] was > 100 µM (inactive) and the GI50 [44] was > 100 µM (inactive). For the same molecule, the GI50 [45] was > 100 µM (inactive), the GI50 [46] was > 100 µM (inactive) and the GI50 [47] was > 100 µM (inactive). For the same molecule, the GI50 [48] was > 100 µM (inactive), the GI50 [49] was > 100 µM (inactive) and the GI50 [50] was > 100 µM (inactive). The GI50 [51] was > 100 µM (inactive), the GI50 [52] was > 100 µM (inactive) and the GI50 [53] was > 100 µM (inactive). The GI50 [54] was > 100 µM (inactive).
